Measured values: PMC9569529, “Safe and Efficient Sigma1 Ligand: A Potential Drug Candidate for Multiple Sclerosis” (International Journal of Molecular Sciences, 2022)

Legend:
[1] = biological target: T1, S2R (Homo sapiens, UniProt Q5BJF2); assay: S2R binding assay, [3H]-DTG, Jurkat cell membranes
T1 construct: host or cells: Jurkat cell membranes
Method: The binding assays were performed by Eurofins Cerep (Poitiers, France) according to Ganapathy. Briefly, S1R)binding assay was carried out by incubating Jurkat cell membranes ([…] protein per tube) with [^3H] (+)-pentazocine (15 nM) and a range of concentrations of test compounds at 37 °C for 2 h in 5 mM Tris HCl buffer (pH = 7.4). The S2R binding assay was performed by incubating Jurkat cell membranes ([…] protein per tube) with [^3H]-DTG (25 nM) in the presence of (+)-pentazocine (1 mM), to saturate S1R, and a range of concentrations of test compounds at room temperature for 1 h in 5 mM Tris HCl buffer (pH = 7.4). Bound radioactivity was measured using liquid scintillation counting. Nonspecific binding was determined in both assays, under similar conditions, as remaining in the presence of […] unlabeled haloperidol. Inhibition constants (Ki) were calculated from the IC50 values according to the method of Cheng and Prusoff.

[2] = system: five bacterial strains; assay: Ames test, overall conclusion on five bacterial strains; details: ±S9, 0.37 to 40 µg/plate
[3] = system: S. typhimurium TA1535; details: 7i 40 µg/plate
[4] = system: S. typhimurium TA102; details: Salmonella typhimurium
[5] = system: TK6 cells; assay: In vitro micronucleus test
Method: The frequency of micronucleated (MN) cells was determined out of at least 2000 mononucleated cells.

[6] = system: dizocilpine-induced learning deficits; assay: Dizocilpine-induced learning deficits, Y-maze spontaneous alternation; type: in vivo, male Swiss mice
Method: The activity of compound 7i was evaluated in regard to its ability to reverse dizocilpine-induced learning deficits. Two behavioral tests were performed by Amylgen (Montferrier-sur-Lez, France) on male Swiss mice (aged 6–9 weeks). All compounds (7i and controls) were intraperitoneally injected.
Animals were tested for spontaneous alternation performance in the Y-maze, an index of spatial working memory. Made of grey polyvinylchloride, the Y-maze has an arm which is 40 cm long, 13 cm high and 3 cm wide at the bottom and 10 cm wide at the top, converging at an equal angle. Each mouse was placed at the end of one arm and allowed to move freely through the maze during an 8-min session. The series of arm entries, including possible returns into the same arm, were checked visually. An alternation was defined as entries into all three arms on consecutive occasions. The number of maximum alternations was therefore the total number of arm entries minus two, and the percentage of alternation was calculated as: (actual alternations/maximum alternations) × 100. Parameters included the percentage of alternation (memory index) and the total number of arm entries (exploration index). Animals showing extreme behavior (alternation < 20% or >90% or number of arm entries < 10) are usually discarded from the calculations. […] Step-through latency (the latency in time spent to enter the dark compartment) and the number of vocalizations were recorded. […] Step-through latency was recorded up to 300 s. When either the mouse entered the dark compartment or 300 s had elapsed (they were therefore manually placed in it), escape latency (latency to exit from the dark compartment) was recorded with a value of up to 300 s. […]

[7] = system: QT interval; assay: ECG QT interval analysis under isoflurane anesthesia; details: for QT Interval Basal / QT Interval 3 min / QT Interval 6 min / QT Interval 10 min / QT Interval 20 min / QT Interval 30 min: in ms (unit assumed); for QT Interval 3 min: 3 min after injection; for QT Interval 6 min: 6 min after injection; for QT Interval 10 min: 10 min after injection; for QT Interval 20 min: 20 min after injection; for QT Interval 30 min: 30 min after injection
Method: Four electrodes were inserted subcutaneously in the mouse limbs. Electrical signals were recorded with a Powerlab (Ad instruments) and analyzed with LabChart Pro software (v8.1.19).
Heart rate and PR, QRS and QT intervals were measured as described in Supplementary Figure S3.

[8] = system: HepG2; assay: Cytotoxicity analysis in HepG2 cells; type: cell-based, human; details: % at 10 µM
Method: Cytotoxicity analysis was performed by Eurofins Cerep (Poitiers, France) according to [74]. Compound 7i was evaluated at 10 µM in the HepG2 cell line. Cell number, nuclear size, mitochondrial membrane potential, intracellular free calcium and membrane permeability were analyzed. % inhibition or % increase were calculated.

[9] = 3 h treatment + 24 h recovery, +S9, 68.75 µg/mL
[10] = 3 h treatment + 24 h recovery, +S9, 137.5 µg/mL
[11] = 3 h treatment + 24 h recovery, +S9, 275 µg/mL
[12] = 3 h treatment + 24 h recovery, −S9, 68.78 µg/mL
[13] = 3 h treatment + 24 h recovery, −S9, 137.5 µg/mL
[14] = 3 h treatment + 24 h recovery, −S9, 275 µg/mL
[15] = 27 h continuous treatment, −S9, 68.75 µg/mL
[16] = 27 h continuous treatment, −S9, 137.5 µg/mL
[17] = 27 h continuous treatment, −S9, 275 µg/mL

T1 sequence (Q5BJF2 whole entry): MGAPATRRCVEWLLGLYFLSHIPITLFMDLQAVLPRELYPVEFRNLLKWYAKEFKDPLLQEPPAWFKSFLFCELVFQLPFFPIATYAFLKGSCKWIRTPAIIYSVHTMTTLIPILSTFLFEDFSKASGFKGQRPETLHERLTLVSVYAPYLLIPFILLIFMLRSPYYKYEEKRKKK

O=C(NCCCNCc1ccccc1)c1ccc(Cl)cc1 [compound 7i-deMe]
Ki [1]: > 1 µM

CN(CCCNC(=O)c1ccc(Cl)cc1)Cc1ccccc1 [compound 7i]
mutagenic effects (Ames, conclusion) [2]: no mutagenic effects | Ames TA1535 +S9 (Mean revertants/well per title) ([3]; +S9, positive control 2-anthramine 0.5): 0.9 | Ames TA1535 −S9 (Mean revertants/well per title) ([3]; −S9, positive control MNNG 0.25): 1.3 | Ames TA102 +S9 (Mean revertants/well per title) [4]: 1.0 | Ames TA102 −S9 (Mean revertants/well per title) [4]: 0.7 | MN/2 × 10^3 Cells [5, 9]: 10.5 | RS (%) [5, 9]: 106.1% | MN/2 × 10^3 Cells [5, 10]: 6.0 | RS (%) [5, 10]: 97.2% | MN/2 × 10^3 Cells [5, 11]: 9.0 | RS (%) [5, 11]: 103.7% | MN/2 × 10^3 Cells [5, 12]: 6.0 | RS (%) [5, 12]: 94.1% | MN/2 × 10^3 Cells [5, 13]: 8.0 | RS (%) [5, 13]: 92.7% | MN/2 × 10^3 Cells [5, 14]: 8.0 | RS (%) [5, 14]: 80.0% | MN/2 × 10^3 Cells [5, 15]: 1.0 | RS (%) [5, 15]: 86.6% | MN/2 × 10^3 Cells [5, 16]: 7.0 | RS (%) [5, 16]: 84.2% | MN/2 × 10^3 Cells [5, 17]: 6.0 | RS (%) [5, 17]: 70.1% | genotoxic characteristics (micronucleus, conclusion) ([5]; TK6 cells, ±S9): no genotoxic characteristics | dizocilpine-induced learning deficits, Y-maze spontaneous alternation ([6]; 0.5 mg/kg i.p., dizocilpine 0.15 mg/kg): significantly attenuated | beneficial effect in Y-maze with NE-100 treatment ([6]; plus NE-100 at 3 mg/kg i.p.): prevented | QT Interval Basal ([7]; 0.5 mg/kg i.p. group): 49 ± 3 | QT Interval 3 min ([7]; 0.5 mg/kg i.p.): 48 ± 4 | QT Interval 6 min ([7]; 0.5 mg/kg i.p.): 46 ± 4 | QT Interval 10 min ([7]; 0.5 mg/kg i.p.): 53 ± 3 | QT Interval 20 min ([7]; 0.5 mg/kg i.p.): 59 ± 4 | QT Interval 30 min ([7]; 0.5 mg/kg i.p.): 58 ± 3 | QT Interval Basal ([7]; 1.0 mg/kg i.p. group): 48 ± 1 | QT Interval 3 min ([7]; 1.0 mg/kg i.p.): 45 ± 2 | QT Interval 6 min ([7]; 1.0 mg/kg i.p.): 46 ± 2 | QT Interval 10 min ([7]; 1.0 mg/kg i.p.): >49 ± 1 | QT Interval Basal ([7]; 10.0 mg/kg i.p. group): 46 ± 1 | QT Interval 3 min ([7]; 10.0 mg/kg i.p.): 43 ± 1 | QT Interval 6 min ([7]; 10.0 mg/kg i.p.): 45 ± 3 | QT Interval 10 min ([7]; 10.0 mg/kg i.p.): 49 ± 2 | QT Interval 20 min ([7]; 10.0 mg/kg i.p.): 52 ± 1 | QT Interval 30 min ([7]; 10.0 mg/kg i.p.): 54 ± 1 | cardiac repolarization (QT interval), conclusion ([7]; 0.5 to 10 mg/kg i.p.): no alteration in cardiac repolarization | heart rate, PR and QRS duration ([7]; 0.5 to 10 mg/kg i.p.): did not alter | pro-arrhythmic effect ([7]; 0.5 to 10 mg/kg i.p.): does not induce a pro-arrhythmic effect | HepG2 Cell number [8]: −3% | HepG2 Intracell free calcium [8]: 0% | HepG2 Membrane permeability [8]: 0% | HepG2 Mitochondrial membrane potential [8]: 5% | HepG2 Nuclear size [8]: 9%
